The values below come from patent publication US4129648A, “Method for reducing endogenous prostaglandin synthesis” (priority 1977, dated 1978).

The test system of this test is prostaglandin synthetase of bovine seminal vesicles. The test can be described thus: Inhibition of conversion of arachidonic acid into PGE2 and PGF2α by BSV prostaglandin synthetase, cascade bioassay. Type of test: biochemical. The method, then:
The high molecular weight mammalian blood plasma or serum extract of the present invention was tested for PG synthesis-inhibiting properties by determining the ability of the extract to inhibit the conversion of arachidonic acid into PGE2 and PGF2α by PG synthetase present in BSV, in the presence of optimal amounts of the cofactor glutathione, (reduced form). Specifically, the inhibitory properties of the extract were determined by a cascade bioassay technique [Collier et al., Brit. J. Pharmac., 58, 193-199 (1976)] involving measurement of prostaglandin activity against response.
The ability of the purified mammalian serum extract to inhibit the enzymatic conversion of arachidonic acid by prostaglandin synthetase obtained from BSV was determined by bioassay on tissues which are known to be contracted by naturally occurring PGs. Segments of rat or hamster stomach fundus (stomach strip) were obtained as described in Brit. J. Pharmacol. Vol. 5, 173 (1950), Vol. 6, 32 (1953), Vol. 12, 344 (1957), and Vol. 23, 351 (1964). […]
A dose of standard PGE2 is put over the tissues by means of the roller pump and the tissue response measured by recording the tissue contraction. […] Alternately, the protein content of the solution can be determined by known techniques, such as the biuret reaction or Kjeldahl method, and the test value expressed in ng. […]

On to “haptoglobin obtained from Cohn subfraction IV4 by the above procedure: haptoglobin from Cohn subfraction IV4 by second procedure: ethacridine lactate precipitation and chromatography”, for which the “Inhibition of PG synthesis (in words)” value is “demonstrated an ability to inhibit”.
